Test results: patent US12077503B2, “Substituted cyclic amides and their use as herbicides” (FMC CORPORATION, priority 2015, dated 2024)

How the values were obtained:
Assay in all cases: Test C preemergence
Type in all cases: in vivo
[1] = test system: Galium (catchweed bedstraw, Galium aparine); details: for Plant response rating, Galium: scale 0 to 100, 0 no effect, 100 complete control
Procedure, shortened: (§1)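 Visual rating, 0–100 scale (0 = no effect, 100 = complete control) versus controls, 13–15 d after treatment. Compounds in non-phytotoxic solvent plus surfactant; applied preemergence to seeds in loam/sand soil or postemergence to 1- to 4-leaf plants (2–18 cm) in peat/vermiculite medium; greenhouse-held.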

[2] = test system: barnyardgrass (Echinochloa crus-galli); details: for Plant response rating, Barnyardgrass: scale 0 to 100, 0 no effect, 100 complete control
Procedure, shortened: as §1

[3] = test system: blackgrass (Alopecurus myosuroides); details: for Plant response rating, Blackgrass: scale 0 to 100, 0 no effect, 100 complete control
Procedure, shortened: as §1

[4] = test system: corn (Zea mays); details: for Plant response rating, Corn: scale 0 to 100, 0 no effect, 100 complete control
Procedure, shortened: as §1

[5] = test system: crabgrass, large (large crabgrass, Digitaria sanguinalis); details: for Plant response rating, Crabgrass, Large: scale 0 to 100, 0 no effect, 100 complete control
Procedure, shortened: as §1

[6] = test system: foxtail, giant (giant foxtail, Setaria faberii); details: for Plant response rating, Foxtail, Giant: scale 0 to 100, 0 no effect, 100 complete control
Procedure, shortened: as §1

[7] = test system: johnsongrass (Sorghum halepense); details: for Plant response rating, Johnsongrass: scale 0 to 100, 0 no effect, 100 complete control
Procedure, shortened: as §1

[8] = test system: lambsquarters (Chenopodium album); details: for Plant response rating, Lambsquarters: scale 0 to 100, 0 no effect, 100 complete control
Procedure, shortened: as §1

[9] = test system: morningglory (Ipomoea coccinea); details: for Plant response rating, Morningglory: scale 0 to 100, 0 no effect, 100 complete control
Procedure, shortened: as §1

[10] = test system: nutsedge, yellow (yellow nutsedge, Cyperus esculentus); details: for Plant response rating, Nutsedge, Yellow: scale 0 to 100, 0 no effect, 100 complete control
Procedure, shortened: as §1

[11] = test system: oilseed rape (Brassica napus); details: for Plant response rating, Oilseed Rape: scale 0 to 100, 0 no effect, 100 complete control
Procedure, shortened: as §1

[12] = test system: ragweed (common ragweed, Ambrosia elatior); details: for Plant response rating, Ragweed: scale 0 to 100, 0 no effect, 100 complete control
Procedure, shortened: as §1

[13] = test system: ryegrass, Italian (Italian ryegrass, Lolium multiflorum); details: for Plant response rating, Ryegrass, Italian: scale 0 to 100, 0 no effect, 100 complete control
Procedure, shortened: as §1

[14] = test system: soybean (Glycine max); details: for Plant response rating, Soybean: scale 0 to 100, 0 no effect, 100 complete control
Procedure, shortened: as §1

[15] = test system: velvetleaf (Abutilon theophrasti); details: for Plant response rating, Velvetleaf: scale 0 to 100, 0 no effect, 100 complete control
Procedure, shortened: as §1

[16] = test system: waterhemp (common waterhemp, Amaranthus rudis); details: for Plant response rating, Waterhemp: scale 0 to 100, 0 no effect, 100 complete control
Procedure, shortened: as §1

[17] = test system: wheat (winter wheat, Triticum aestivum); details: for Plant response rating, Wheat: scale 0 to 100, 0 no effect, 100 complete control
Procedure, shortened: as §1

[18] = 31 g ai/ha, 0 is no effect, 100 is complete control

Structure (SMILES): CN1CC(c2cccc(C(F)(F)F)c2)C(C(=O)Nc2ccccc2S(C)(=O)=O)C1=O (centres unmarked) [Compound 637]
- Plant response rating (scale of 0 to 100), Galium [1, 18]: 0
- Plant response rating, Galium ([1]; 62 g ai/ha): 80
- Plant response rating, Galium ([1]; 125 g ai/ha): 80
- Plant response rating, Galium ([1]; 250 g ai/ha): 85
- Plant response rating (scale of 0 to 100), Barnyardgrass [2, 18]: 90
- Plant response rating, Barnyardgrass ([2]; 62 g ai/ha): 90
- Plant response rating, Barnyardgrass ([2]; 125 g ai/ha): 95
- Plant response rating, Barnyardgrass ([2]; 250 g ai/ha): 95
- Plant response rating (scale of 0 to 100), Blackgrass [3, 18]: 70
- Plant response rating, Blackgrass ([3]; 62 g ai/ha): 90
- Plant response rating, Blackgrass ([3]; 125 g ai/ha): 90
- Plant response rating, Blackgrass ([3]; 250 g ai/ha): 90
- Plant response rating (scale of 0 to 100), Corn [4, 18]: 35
- Plant response rating, Corn ([4]; 62 g ai/ha): 55
- Plant response rating, Corn ([4]; 125 g ai/ha): 75
- Plant response rating, Corn ([4]; 250 g ai/ha): 85
- Plant response rating (scale of 0 to 100), Crabgrass, Large [5, 18]: 95
- Plant response rating, Crabgrass, Large ([5]; 62 g ai/ha): 100
- Plant response rating, Crabgrass, Large ([5]; 125 g ai/ha): 100
- Plant response rating, Crabgrass, Large ([5]; 250 g ai/ha): 100
- Plant response rating (scale of 0 to 100), Foxtail, Giant [6, 18]: 90
- Plant response rating, Foxtail, Giant ([6]; 62 g ai/ha): 90
- Plant response rating, Foxtail, Giant ([6]; 125 g ai/ha): 95
- Plant response rating, Foxtail, Giant ([6]; 250 g ai/ha): 95
- Plant response rating (scale of 0 to 100), Johnsongrass [7, 18]: 45
- Plant response rating, Johnsongrass ([7]; 62 g ai/ha): 70
- Plant response rating, Johnsongrass ([7]; 125 g ai/ha): 75
- Plant response rating, Johnsongrass ([7]; 250 g ai/ha): 85
- Plant response rating (scale of 0 to 100), Lambsquarters [8, 18]: 25
- Plant response rating, Lambsquarters ([8]; 62 g ai/ha): 55
- Plant response rating, Lambsquarters ([8]; 125 g ai/ha): 55
- Plant response rating, Lambsquarters ([8]; 250 g ai/ha): 70
- Plant response rating (scale of 0 to 100), Morningglory [9, 18]: 10
- Plant response rating, Morningglory ([9]; 62 g ai/ha): 35
- Plant response rating, Morningglory ([9]; 125 g ai/ha): 40
- Plant response rating, Morningglory ([9]; 250 g ai/ha): 45
- Plant response rating (scale of 0 to 100), Nutsedge, Yellow [10, 18]: 0
- Plant response rating, Nutsedge, Yellow ([10]; 62 g ai/ha): 85
- Plant response rating, Nutsedge, Yellow ([10]; 125 g ai/ha): 0
- Plant response rating, Nutsedge, Yellow ([10]; 250 g ai/ha): 65
- Plant response rating (scale of 0 to 100), Oilseed Rape [11, 18]: 10
- Plant response rating, Oilseed Rape ([11]; 62 g ai/ha): 80
- Plant response rating, Oilseed Rape ([11]; 125 g ai/ha): 85
- Plant response rating, Oilseed Rape ([11]; 250 g ai/ha): 85
- Plant response rating (scale of 0 to 100), Ragweed [12, 18]: 55
- Plant response rating, Ragweed ([12]; 62 g ai/ha): 60
- Plant response rating, Ragweed ([12]; 125 g ai/ha): 75
- Plant response rating, Ragweed ([12]; 250 g ai/ha): 75
- Plant response rating (scale of 0 to 100), Ryegrass, Italian [13, 18]: 55
- Plant response rating, Ryegrass, Italian ([13]; 62 g ai/ha): 30
- Plant response rating, Ryegrass, Italian ([13]; 125 g ai/ha): 30
- Plant response rating, Ryegrass, Italian ([13]; 250 g ai/ha): 35
- Plant response rating (scale of 0 to 100), Soybean [14, 18]: 0
- Plant response rating, Soybean ([14]; 62 g ai/ha): 0
- Plant response rating, Soybean ([14]; 125 g ai/ha): 0
- Plant response rating, Soybean ([14]; 250 g ai/ha): 5
- Plant response rating (scale of 0 to 100), Velvetleaf [15, 18]: 0
- Plant response rating, Velvetleaf ([15]; 62 g ai/ha): 10
- Plant response rating, Velvetleaf ([15]; 125 g ai/ha): 45
- Plant response rating, Velvetleaf ([15]; 250 g ai/ha): 65
- Plant response rating (scale of 0 to 100), Waterhemp [16, 18]: 75
- Plant response rating, Waterhemp ([16]; 62 g ai/ha): 80
- Plant response rating, Waterhemp ([16]; 125 g ai/ha): 85
- Plant response rating, Waterhemp ([16]; 250 g ai/ha): 90
- Plant response rating (scale of 0 to 100), Wheat [17, 18]: 60
- Plant response rating, Wheat ([17]; 62 g ai/ha): 50
- Plant response rating, Wheat ([17]; 125 g ai/ha): 90
- Plant response rating, Wheat ([17]; 250 g ai/ha): 90
